The values that follow come from patent publication US20230219961A1, “Pyridine acetamide derivative serving as CDK inhibitor, and preparation method therefor and use thereof” (Suzhou AlphaMa Biotechnology Co., Ltd., priority 2020, published 2023).

One assay concerns RNA pol II Ser5. The assay is described as follows: CDK7 signaling pathway in Mv4-11 cells: phosphorylation of RNA pol II Ser5 (SDS-PAGE/blot). The assay is classed as cell-based. The following applies: 6 hours, FIG. 1. On the procedure:
(§1) The inhibition effect of the compounds of the present disclosure on CDK7/CDK9 protein downstream RNA pol II Ser ⅖ in Mv4-11 cells in vitro was determined by the following method:
(§2) 1) Cell inoculation: Mv4-11 cells with good growing state in logarithmic growth phase were inoculated into a six-well plate with 2^∗10^5 cells/well, and cultured overnight at 37° C. and under 5% CO2 condition.
(§3) 2) Administration: The compound was diluted with 2 mL of 1640 medium containing 10% FBS and 1% PS. […] of the medium containing the compound was added to the overnight cultured cells, and it was placed in a 37° C., 5% CO2 cell incubator for 6 hours.
(§4) 3) Protein extraction and quantification: Cell suspension was collected and centrifuged at 1000 g for 5 min, the cell culturing medium was discarded, and PBS was added for resuspension and centrifugation; it was repeated three times, the residual liquid was sucked dry, 80 uL cell lysate was added per well, it was placed to ice, shaked for 10 min on a shaker and centrifuged at 12000 g for 5 min, and the supernatant, ie, the total protein solution, was collected; the protein concentration was tested by BCA.
(§5) 4) 12% SDS-PAGE electrophoresis was used to detect, after that trarsmembran was carried out at 100 V voltage for 3 h, blocking solution (Beyotime: P0235) was used to block for 15 min, TBST(Sangon Biotech: C520002) was used to wash the membrane three times, and the primary antibody (target protein CST:13499, internal reference Beyotime: AF1186) was incubated at 4° C. overnight; the membrane was washed with TBST three times; the secondary antibody (Beyotime: A0208) was incubated at room temperature for 1 hour; the membrane was washed with TBST three times; ECL (Tanon: 180-501) was used for exposure and coloration.

The target of another assay is T1, CDK7 (Homo sapiens, UniProt P50613).
T1 construct: purchased Eurofilns (sic; Eurofins) 14-476 M
The assay is described as follows: Inhibitory effect on the kinase activity of CDK7 in vitro (Caliper). To be noted: 77 uM ATP, 0.2 ug/uL CTD3 peptide; read-out: CDK 7 IC50. The assay is classed as biochemical. On the procedure: (§6) The detection of the inhibitory effect of the compounds of the present disclosure on the kinase activity of CDK7/CDK9 in vitro was determined by the following method:
(§7) 1) The compound was accurately weighed and dissolved in DMSO (Sigma, D2650) to a concentration of 100 mM for later use. The compound was diluted to 5-fold of a desired highest concentration, and diluted 4-fold into 6 concentration gradients, allowing the final concentration of the compound in the reaction system to be CDK7: 3000, 750, 188, 47, 12, 3 nM; CDK9: 100, 25, 6.25, 1.56, 0.39, 0.098 nM. 5 ul was taken to a 384-well plate (Corning, 4512).
(§8) 2) Kinase reaction: 10uL protein kinase (CDK7: Eurofilns,14-476 M; CDK9: Millipore,14-685 M) solution was added to the 384-well plate (Corning, 4512) containing the compound, and allowed to stand at room temperature for 10 min; a mixed solution of ATP(Sigma, A7699) and substrate polypeptide (CDK7: 77 uM ATP&0.2ug/uL CTD3 peptide (GL Biochem,SY356885); CDK9: 10 uM ATP&0.2 ug/uL CTD3 peptide (GL Biochem,SY356885)) was added, and allowed to stand at 28° C. for a short time; and then a stop solution was added to terminate the reaction at 25 uL per well.
(§9) 3) Detection: Data was collected by Caliper.
(§10) 4) Calculation: The IC50 value was calculated by Graphpad prism 5.0 software according to the concentration of the compound and the corresponding signal value.

A further assay addresses T2, CDK9 (Homo sapiens, UniProt P50750).
T2 construct: purchased Millipore 14-685 M
The assay is described as follows: Inhibitory effect on the kinase activity of CDK9 in vitro (Caliper). In kind it is biochemical. The following applies: 10 uM ATP, 0.2 ug/uL CTD3 peptide; read-out: CDK 9 IC50. The method, then:
as §6, §7, §8, §9, §10

In a further assay the test system is Mv4-11 cells. Briefly: Inhibition of the proliferation of Mv4-11 cells (CCK8). In kind it is cell-based. The following applies: Homo sapiens, MV4-11, 48 h. On the procedure: The inhibition effect of the compounds of the present disclosure on the proliferation of Mv4-11 cells (ATCC:CRL-9591™) in vitro was determined by the following method:
1) Cell inoculation: Mv4-11 cells with good growing state in logarithmic growth phase were inoculated into a 96-well plate at 20000 cells per well and 50 uL, and cultured at 37° C. and under 5% CO2 condition for 2-4 h.
2) Administration: The compound was diluted with 1640 medium containing 10% FBS and 1% PS: 0.4 uL of the compound with an initial concentration of 1 mM was placed in a dilution plate, each added with 199.6 uL of the above culture medium, and gradiently diluted 4-fold, so that the final concentration in the added cell was 1000, 250, 62.5, 15.625, 3.91, 0.98, 0.24, 0.06 nM. 50 µL of the medium containing the compound was sequentially added, and it was placed in a 37° C., 5% CO2 cell incubator for 48 hours.
3) Detection: 10uL CCK8 (Dojindo, CK 04) solution was added to each well, incubated in 37° C. 5% CO2 cell incubator for 2 hours, and then the OD450 value was read by Synegry H1(BioTek) multimode microplate reader.
4) Calculation: The IC50 value was calculated using Graphpad prism 5.0 software according to the concentration of the compound and the corresponding signal value.

A further assay concerns RNA pol II Ser2. Briefly: CDK9 signaling pathway in Mv4-11 cells: phosphorylation of RNA pol II Ser2 (SDS-PAGE/blot). The assay is classed as cell-based. The following applies: 6 hours, FIG. 1. On the procedure: as §1, §2, §3, §4, §5

T2 sequence (P50750 whole entry): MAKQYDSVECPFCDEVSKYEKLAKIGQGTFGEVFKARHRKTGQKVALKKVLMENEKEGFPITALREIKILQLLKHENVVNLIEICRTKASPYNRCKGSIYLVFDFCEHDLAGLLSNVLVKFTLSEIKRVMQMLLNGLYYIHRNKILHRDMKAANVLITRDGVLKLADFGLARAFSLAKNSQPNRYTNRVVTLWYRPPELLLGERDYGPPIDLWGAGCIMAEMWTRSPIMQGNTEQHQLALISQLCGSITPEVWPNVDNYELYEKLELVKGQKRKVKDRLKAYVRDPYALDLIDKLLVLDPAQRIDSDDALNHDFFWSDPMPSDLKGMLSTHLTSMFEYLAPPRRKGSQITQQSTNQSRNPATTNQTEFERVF
T2 sequence (O60563 whole entry partner): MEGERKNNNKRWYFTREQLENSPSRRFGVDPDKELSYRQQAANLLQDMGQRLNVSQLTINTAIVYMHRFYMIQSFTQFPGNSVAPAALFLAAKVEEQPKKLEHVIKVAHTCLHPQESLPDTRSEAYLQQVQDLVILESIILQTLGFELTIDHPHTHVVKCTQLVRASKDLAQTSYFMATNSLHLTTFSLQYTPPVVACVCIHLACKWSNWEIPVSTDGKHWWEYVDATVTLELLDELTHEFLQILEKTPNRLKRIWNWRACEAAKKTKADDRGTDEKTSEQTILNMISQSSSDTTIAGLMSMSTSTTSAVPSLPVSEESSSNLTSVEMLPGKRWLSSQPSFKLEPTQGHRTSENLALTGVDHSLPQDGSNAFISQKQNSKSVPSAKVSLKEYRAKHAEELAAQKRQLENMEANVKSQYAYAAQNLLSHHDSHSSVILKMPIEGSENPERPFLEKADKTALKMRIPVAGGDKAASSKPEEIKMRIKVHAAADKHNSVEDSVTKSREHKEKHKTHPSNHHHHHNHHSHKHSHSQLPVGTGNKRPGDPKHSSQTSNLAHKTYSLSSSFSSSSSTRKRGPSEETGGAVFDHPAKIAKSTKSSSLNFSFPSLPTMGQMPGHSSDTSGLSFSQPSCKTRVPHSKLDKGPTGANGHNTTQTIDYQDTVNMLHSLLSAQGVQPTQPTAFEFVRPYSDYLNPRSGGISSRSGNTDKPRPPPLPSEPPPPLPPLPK
T1 sequence (P50613 whole entry): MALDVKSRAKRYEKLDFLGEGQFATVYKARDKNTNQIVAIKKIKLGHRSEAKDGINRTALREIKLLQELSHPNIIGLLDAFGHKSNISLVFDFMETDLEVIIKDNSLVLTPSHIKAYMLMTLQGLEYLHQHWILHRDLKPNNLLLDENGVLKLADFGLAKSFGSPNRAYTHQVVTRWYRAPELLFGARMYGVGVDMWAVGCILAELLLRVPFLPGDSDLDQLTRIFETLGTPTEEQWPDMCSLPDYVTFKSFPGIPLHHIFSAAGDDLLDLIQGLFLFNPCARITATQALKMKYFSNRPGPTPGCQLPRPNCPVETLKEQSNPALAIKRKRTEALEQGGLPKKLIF
T1 sequence (P51946 whole entry partner): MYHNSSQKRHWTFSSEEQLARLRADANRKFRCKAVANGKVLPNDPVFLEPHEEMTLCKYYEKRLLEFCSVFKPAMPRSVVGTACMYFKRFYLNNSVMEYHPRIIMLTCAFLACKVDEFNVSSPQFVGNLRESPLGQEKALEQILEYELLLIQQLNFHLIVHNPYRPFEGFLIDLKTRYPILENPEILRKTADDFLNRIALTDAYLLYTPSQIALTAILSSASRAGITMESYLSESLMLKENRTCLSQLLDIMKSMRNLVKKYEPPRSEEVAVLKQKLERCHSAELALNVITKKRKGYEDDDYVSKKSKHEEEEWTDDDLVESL
T1 sequence (P51948 whole entry partner): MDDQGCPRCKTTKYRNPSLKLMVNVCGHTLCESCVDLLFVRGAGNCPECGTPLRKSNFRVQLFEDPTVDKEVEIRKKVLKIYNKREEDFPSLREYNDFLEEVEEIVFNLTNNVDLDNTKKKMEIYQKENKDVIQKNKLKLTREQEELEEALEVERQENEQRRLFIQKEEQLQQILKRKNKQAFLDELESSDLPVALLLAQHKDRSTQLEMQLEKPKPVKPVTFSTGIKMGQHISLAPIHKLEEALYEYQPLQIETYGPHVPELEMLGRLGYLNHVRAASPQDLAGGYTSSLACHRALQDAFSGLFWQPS

With `C[C@@H](C(=O)Nc1cc(-c2cnn3c2CC(C)(C)C3)c(Cl)cn1)c1cccc(C#N)n1` [Compound 13-2, (R)-N-(5-chloro-4-(5,5-dimethyl-5,6-dihydro-4H-pyrrolo[1,2-b]pyrazol-3-yl)pyridin-2-yl)-2-(6-cyanopyridin-2-yl)propionamide (assumed)], in the assay on RNA pol II Ser5, the “inhibitory effect on the phosphorylation of the CDK7 protein downstream RNA pol II Ser5” value is given as “significant inhibitory effect”. In addition, the IC50 at CDK7 is 328 nM; at CDK9 it was 3 nM; with Mv4-11 cells, 4.8 nM.

Turning to `C[C@@H](C(=O)Nc1cc(-c2cnn3c2CC(C)(C)C3)c(Cl)cn1)c1cccc(C(N)=O)c1` [Compound 2-2, (R)-3-(1-((5-chloro-4-(5,5-dimethyl-5,6-di hydro-4H-pyrrolo[1,2-b]pyrazol-3-yl)pyridin-2-yl)amino)-1-oxopropan-2-yl)benzamide (assumed)], in the assay on RNA pol II Ser5, the “inhibitory effect on the phosphorylation of the CDK7 protein downstream RNA pol II Ser5” value was “significant inhibitory effect”. The IC50 on CDK7 was determined as 19 nM; at CDK9, 2.7 nM; with Mv4-11 cells it was 1.6 nM. For the same compound, in the assay with RNA pol II Ser2, the “inhibitory effect on the phosphorylation of CDK9 protein downstream RNA pol II Ser2” value is given as “significant inhibitory effect”.

`CNC(=O)c1cccc(CC(=O)Nc2cc(-c3cnn4c3CC(C)(C)C4)c(Cl)cn2)c1` [Compound 3, 3-(2-((5-chloro-4-(5,5-dimethyl-5,6-dihydro-4H-pyrrolo[1,2-b]pyrazol-3-yl)pyridin-2-yl)amino)-2-oxoethyl)-N-methylbenzamide]: the “inhibitory effect on the phosphorylation of the CDK7 protein downstream RNA pol II Ser5” value in the assay with RNA pol II Ser5 is listed as “significant inhibitory effect”. Further, the IC50 is 103 nM at CDK7, 4 nM at CDK9 and 3.9 nM in the assay with Mv4-11 cells.

On to `C[C@H](C(=O)Nc1cc(-c2cnn3c2CC(C)(C)C3)c(Cl)cn1)c1cccc(C#N)n1` [Compound 13-1, (S)-N-(5-chloro-4-(5,5-dimethyl-5,6-dihydro-4H-pyrrolo[1,2-b]pyrazol-3-yl)pyridin-2-yl)-2-(6-cyanopyridin-2-yl)propionamide (assumed)], for which, in the assay on RNA pol II Ser2, the “inhibitory effect on the phosphorylation of CDK9 protein downstream RNA pol II Ser2” value was “significant inhibitory effect”. The IC50 at CDK9 worked out at 44.4 nM; in the assay with Mv4-11 cells it was 148 nM.

Regarding `C[C@@H](C(=O)Nc1cc(-c2cnn3c2CC(C)(C)C3)c(Cl)cn1)c1cccnc1` [Compound 11-2, (R)-N-(5-chloro-4-(5,5-dimethyl-5,6-dihydro-4H-pyrrolo[1,2-b]pyrazol-3-yl)pyridin-2-yl)-2-(pyridin-3-yl)propionamide (assumed)], the “inhibitory effect on the phosphorylation of the CDK7 protein downstream RNA pol II Ser5” value in the assay on RNA pol II Ser5 is on record as “significant inhibitory effect”. Besides, in the assay on RNA pol II Ser2, the “inhibitory effect on the phosphorylation of CDK9 protein downstream RNA pol II Ser2” value is “significant inhibitory effect”. Further, the IC50 was found to be 2.9 nM at CDK9 and 13 nM in the assay with Mv4-11 cells.

In the case of `C=CC(=O)NCc1ccc(-c2ccc([C@H](C)C(=O)Nc3cc(-c4cnn5c4CC(C)(C)C5)c(Cl)cn3)cn2)cn1` [Compound 20-1, (S)-N-((5-(1-((5-chloro-4-(5,5-dimethyl-5,6-dihydro-4H-pyrrolo[1,2-b]pyrazol-3-yl)pyridin-2-yl)amino)-1-oxopropan-2-yl)-[2,3′ -bipyridin]-6′-yl)methyl)acrylamide (assumed)], the IC50 on CDK7 stood at 25.1 nM; at CDK9, 8.4 nM; in the assay on Mv4-11 cells it was 3.7 nM.

One may read the IC50 as the concentration that inhibits the measured activity by half.
